From PMC7178524, “Comparative Pharmacokinetic Profiles of Puerarin in Rat Plasma by UHPLC-MS/MS after Oral Administration of Pueraria lobata Extract and Pure Puerarin” (Journal of Analytical Methods in Chemistry, 2020)

Tests used:
[1] = parameters: method as in PMID 29099639, PMID 29790819; conditions: coadministered with PUR, compared with the control group; cited from earlier work
MRP2 = conditions: after added probenecid (MRP2 inhibitor); ref "Studies have found", no number given; cited from earlier work
[2] = Pharmacokinetics of PUR in rat plasma after single oral administration, UHPLC-MS/MS; type: in vivo, male Wistar rats
Method: Male Wistar rats (250−270 g) were purchased from the SPF (Beijing) Biotechnology Co., Ltd. (Beijing, China). The rats were then housed in an animal room to adapt to the environment for a week at standard temperature (23−28°C), humidity (50−65%), free diet, and tap water. Rats were fasted for 12 h before pharmacokinetic experiments and allowed free access to water and sugar during sample collection. Both PUR and PLE were dispersed in a 0.5% carboxymethyl cellulose solution and then sonicated to obtain a homogeneous suspension. A whole blood sample was collected from the infraorbital vein and immediately centrifuged at 3,500 rpm for 10 minutes at 4°C to obtain plasma. Plasma was stored at −20°C for later analysis. The experimental protocol was approved by the Animal Experiment Ethics Review Committee of Jiangsu Vocational College of Medicine.
Chromatographic separation was performed using a Waters Acquity UHPLC system with an Acquity HSS T3 column (1.8 μm, 2.1 × 50 mm, Waters, Milford, MA). Mobile phase A consists of 0.1% aqueous formic acid solution, and mobile phase B consists of 0.1% formic acid acetonitrile. The gradient elution was as follows: 0 to 0.5 min, a linear gradient from 10 to 15% B; 0.5 to 2 min, 15 to 40% B; 2 to 4 min, 40 to 80% B; 4.1 to 5 min, 80 to 99% B; 5.1 to 7 min, a linear gradient back to 10% B. The flow rate was 0.3 mL/min. The column temperature was maintained at 40 °C, and the sample storage compartment was maintained at 4°C. Under these conditions, PUR and berberine hydrochloride were eluted at 2.0 and 3.2 minutes, respectively.
Mass spectrometric detection was performed on a Waters TQD tandem mass spectrometer equipped with an electrospray ionization (ESI) source. The mass spectrometer was operated in multiple reaction monitoring (MRM) positive-ion mode and was quantified using the following transitions: m/z 417.1 > 297.0 for PUR and m/z 336.0 > 320.0 for berberine hydrochloride, and the mass fragment spectrum of PUR and berberine hydrochloride is shown in Figure 2. For all transitions, the cone voltage of 35 V and a collision energy of 30 eV for both PUR and berberine hydrochloride were used, as shown in Table 1. The capillary voltage was set at 2.8 kV, and the source temperature was maintained at 500°C with a gas flow rate of 850 L/h. Argon is used as the collision gas. The cone gas flow was set at 50 L/h. Data acquisition were performed with MassLynx^TM software version 4.1, and quantitation was performed using TargetLynx^TM (Waters, Milford, MA, USA).
Rat plasma sample (100 μL) and IS solution (20 μL, 100 ng/mL) were added to a 1.5 mL Eppendorf tube and vortex-mixed for 30 s, followed by adding 500 μL of acetonitrile to precipitate protein. The mixture was then vortex-mixed for 2 min and centrifuged at 10,000 rpm for 10 min. The supernatant was evaporated to dryness under a stream of nitrogen gas. The obtained residue was reconstituted with methanol-water (80 : 20, v/v), then vortex-mixed for 3min and centrifuged at 13,000 rpm for 10 min. Finally, a 2 μL sample of the supernatant was injected into the UHPLC-MS/MS system for analysis.
The validated method was applied to determine the plasma concentration of PUR in rats after single oral administration of PLE at a dose of 763 mg/kg (equivalent to 100.0 mg/kg of PUR, 1 mL/100g BW) or administration of PUR at a dose of 100 mg/kg (1 mL/100g BW). Twelve male Wistar rats were randomly divided into two groups of six rats each and fasted for 12 h before the experiment. The whole blood samples were collected in heparinized tubes through the suborbital vein of rat at 0.25, 0.5, 0.75, 1, 1.5, 2, 3, 4, 6, 8, 12, 24, 36, and 48 h after gavage administration of drugs. The blood samples were immediately centrifuged at 3,500 rpm for 10 min to obtain plasma. Plasma was stored at −20°C until analysis. […]

[3] = Stability of PUR in rat plasma (QC samples, four storage conditions); type: in vitro ADME; conditions: for Stability (RE, %) Postextraction: extracted rat plasma sample, auto sampler 4°C for 24 h; for Stability (RE, %) Postextraction / Stability (RE, %) 23°C–28°C/24 h / Stability (RE, %) −20°C/30 day / Stability (RE, %) Freeze-thaw (3 cycles): n = 3; for Stability (RE, %) 23°C–28°C/24 h / Stability (RE, %) −20°C/30 day / Stability (RE, %) Freeze-thaw (3 cycles): rat plasma; for Stability (RE, %) Freeze-thaw (3 cycles): −20°C to 25°C
Method: The stock solutions of PUR at a concentration of 200 μg/mL were prepared with methanol. A series of working solutions (4000, 1000, 400, 200, 100, and 40 ng/mL) were then prepared by diluting the stock solution with methanol. A 100 μg/mL IS stock solution was also prepared with methanol. A working solution of IS was prepared at a concentration of 100 ng/mL by diluting the stock solution with methanol. A standard calibration curve was prepared by adding 20 μL of the abovementioned PUR working solution and 20 μL of the IS working solution to 100 μL of blank plasma. The final plasma concentrations of PUR were in the concentration ranges of 800, 200, 80, 40, 20, and 8 ng/mL. QC samples of low, medium, and high concentrations (8, 80, and 720 ng/mL) of PUR were also prepared following the same procedure as described above. All solutions were kept at 4°C until use.
The stability of the PUR in rat plasma was investigated by analyzing QC samples under four different storage conditions, including three freeze-thaw cycles, room temperature 23−28°C for 24 h, −20°C for 30 days, and postextraction stability after the extracted samples being stored in the auto sampler at the temperature 4°C for 24 h. If the accuracy deviation was within ± 15%, the PUR was considered stable.

P-gp = conditions: after added verapamil (P-gp inhibitor); ref "Studies have found", no number given; cited from earlier work
[4] = male, Wistar, PUR in rat plasma, oral PUR 100 mg/kg, n = 6, mean ± SD

## CC(C)(O)[C@@H]1CC[C@](C)([C@H]2[C@@H](O)C[C@@]3(C)[C@@H]4C[C@H](O[C@@H]5O[C@H](CO)[C@@H](O)[C@H](O)[C@H]5O)[C@H]5C(C)(C)[C@@H](O[C@@H]6OC[C@@H](O)[C@H](O)[C@H]6O)CC[C@@]56C[C@@]46CC[C@]23C)O1 [astragaloside IV]
[1]
  effect on Tmax, Cmax, and AUC0-t of PUR: significantly reduce

## O=c1c(-c2ccc(O)cc2)coc2c([C@@H]3O[C@H](CO)[C@@H](O)[C@H](O)[C@H]3O)c(O)ccc12 [PUR, daidzein-8-C-glucoside]
MRP2
  increase of intestinal absorption of PUR: 2.3 times
[2]; [4]
  AUC(0-inf): 220 ± 64.4 ng·h/mL
  AUC(0-t): 213 ± 61.9 ng·h/mL
  Tmax: 1.46 ± 1.08 h
  half-life: 96 ± 22.8 min
[2]; male, Wistar, PUR in rat plasma, oral PUR 100 mg/kg, n = 6, mean ± SD, read-out: CLz/F (converted)
  CL/F: 8480 mL/min/kg
[2]; male, Wistar, PUR in rat plasma, oral PUR 100 mg/kg, n = 6, mean ± SD, read-out: MRT 0-t
  MRT last: 2.22 ± 0.46 h
[2]; male, Wistar, PUR in rat plasma, oral PUR 100 mg/kg, n = 6, mean ± SD, read-out: Vz/F
  Vd/F: 1200 ± 403 L/kg
[2]; male, Wistar, rat plasma, oral puerarin 100 mg/kg, abstract, read-out: maximum concentration (Cmax) of puerarin
  Cmax: 102 ± 41.8 ng/mL
[2]; oral pure PUR 100 mg/kg, rats
  shape of plasma concentration-time curve of PUR: no double-peak phenomenon
[3]; 8.0 ng/mL
  Stability (RE, %) Postextraction: −7.7%
  Stability (RE, %) 23°C–28°C/24 h: 11.5%
  Stability (RE, %) −20°C/30 day: 11.4%
  Stability (RE, %) Freeze-thaw (3 cycles): 9.3%
[3]; 80.0 ng/mL
  Stability (RE, %) Postextraction: −6.3%
  Stability (RE, %) 23°C–28°C/24 h: 6.5%
  Stability (RE, %) −20°C/30 day: 6.2%
  Stability (RE, %) Freeze-thaw (3 cycles): 5.6%
[3]; 720.0 ng/mL
  Stability (RE, %) Postextraction: 5.9%
  Stability (RE, %) 23°C–28°C/24 h: 8.7%
  Stability (RE, %) −20°C/30 day: −4.7%
  Stability (RE, %) Freeze-thaw (3 cycles): −5.1%
[3]; three freeze/thaw cycles, −20°C for 30 days, 23°C to 28°C for 24 h, postextraction 4°C for 24 h, stable if deviation within ± 15%
  stability in rat plasma under four tested conditions: stable
P-gp
  increase of intestinal absorption of PUR: 2.7 times

## CC1(C)[C@@H](O[C@H]2O[C@H](C(=O)O)[C@@H](O)[C@H](O)[C@H]2O[C@@H]2O[C@H](C(=O)O)[C@@H](O)[C@H](O)[C@H]2O)CC[C@]2(C)[C@H]3C(=O)C=C4[C@@H]5C[C@@](C)(C(=O)O)CC[C@]5(C)CC[C@@]4(C)[C@]3(C)CC[C@@H]12 [glycyrrhizin]
[1]
  effect on Tmax, Cmax, and AUC0-t of PUR: significantly reduce
